Experimental data from patent US20220339143A1, “TAK-925 FOR USE IN TREATING NARCOLEPSY” (Takeda Pharmaceutical Company Limited, priority 2019, published 2022).

Experiments:
[1] = system: healthy adults, healthy elderly subjects; assay: Safety/tolerability of a single dose given as 9 hour continuous IV infusion in healthy adults and healthy elderly subjects; assay type: in vivo, human
Procedure: (§1) This study investigates (i) the safety and tolerability of Compound A (methyl (2R,3S)-3-((methylsulfonyl)amino)-2-(((cis-4-phenylcyclohexyl)oxy)methyl)piperidine-1-carboxylate) when a single dose given as a 9 hour continuous IV infusion is administered to healthy adults, healthy elderly subjects and patients with narcolepsy type 1 (NT1); (ii) the pharmacokinetics of Compound A when a single dose given as a 9 hour continuous IV infusion is administered to healthy adults, healthy elderly subjects and patients with narcolepsy type 1; and (iii) the pharmacodynamics (PD) effects of Compound A, primarily by evaluation of the sleep latency on MWT when a single dose given as a 9 hour continuous IV infusion is administered to patients with narcolepsy type 1.
(§2) Safety and tolerability: adverse events, vital signs, 12-lead ECG and clinical laboratory tests (hematological tests, blood biochemical tests and urinalysis)
(§3) To investigate the safety of Compound A, the treatment-emergent adverse events (TEAEs) for healthy subjects and subjects with narcolepsy type 1 (NT1 patients) treated with Compound A were evaluated. A summary of the TEAEs for healthy subjects from cohorts 1 and 2 is shown in FIG. 3, for healthy subjects from cohorts S1, S2, 3, and 4 is shown in FIG. 4, and for NT1 patients is shown in FIG. 5.

patients with NT1 = assay: Sleep latency in MWT, multiple dose (Cohorts B1, B2); assay type: in vivo, human
Procedure: The purpose of the study was to evaluate the safety, tolerability, pharmacokinetics and pharmacodynamics of Compound A after multiple IV administration in patients with NT1. NT1 patients were evaluated in Cohort B1 and B2 (Table 19). Compound A or placebo were administered via IV infusion over 9 hours once daily for 7 days. A total of 13 patients with NT1 were treated with Compound A or placebo (4, 4, and 5 subjects in the placebo, Compound A 11 mg, and Compound A 44 mg groups, respectively). In this part, potential efficacy of Compound A was evaluated with MWT, ESS, KSS, night-time PSG (NPSG), cataplexy frequency assessment, and PGI-C as an exploratory PD assessment.
An overview of study schedule and PD testing in NT1 Patients is illustrated in FIG. 11. After screening, patients eligible for these parts had to discontinue any medication for narcolepsy including medications used for EDS or cataplexy. The medications had to be stopped for a minimum of 7 days or at least 5 half-lives of each medication, whichever was longer, before the first day of dosing (Day 1). As for a subject having possibility of getting injured due to severe cataplexy, the subject might have been confined to the site before Day −2 at a discretion of the investigator. In all cohorts of these parts, subjects underwent NPSG on Day −2 and baseline MWT sessions 4 times on Day −1 (at around 10:00, 12:00, 14:00, and 16:00). Study drug dosing via IV infusion was started at around 08:00. MWT was conducted on Day 1 at around 10:00, 12:00, 14:00, and 16:00. Subjects were allowed to take a nap on the days with no MWT assessment. At night of Day 6, the subjects underwent NPSG once again to evaluate the effect of multiple daytime dosing on night-time sleep structure. On Day 7, the subjects underwent MWT at the same hours as on Day −1. Cataplexy was to be evaluated by using the self-recorded sleep diary. The subjects were discharged from the study site on Day 8.
The MWT is a validated objective measure that evaluates a person's ability to remain awake under soporific conditions for a defined period of time. As there is no biological measure of wakefulness, this was measured indirectly by the inability or delayed tendency to fall asleep. This tendency to fall asleep was measured via EEG-derived sleep latency in MWT.
On Day −1, Day 1 and Day 7, 40-minute session (1 session) of MWTs was performed 4 times (approximately at 10:00, 12:00, 14:00, and 16:00) per day. Sleep latency of each session was recorded. Subjects were required to stay awake during an interval between sessions.

[2] = system: patients with narcolepsy type 1 (NT1); assay: Safety/tolerability of a single dose given as 9 hour continuous IV infusion in NT1 patients; assay type: in vivo, human
Procedure: as §1, §2, §3

[3] = system: patients with narcolepsy type 1 (NT1); assay: Number of cataplexy episodes (daily diary), single dose (Cohorts 5, 6, 7); assay type: in vivo, human; settings: for Number of Events of Cataplexy per Week in one particular patient: cohort 7
Text: Assessment of cataplexy and other sleep manifestations using a daily diary to collect episodes of cataplexy and sleep symptoms associated with NT1.

[4] = Plasma concentrations in healthy subjects (Cohort 4); assay type: in vivo; settings: human, intravenous, 112 mg
Procedure: (§4) Pharmacokinetics: Concentrations of Compound A in plasma, and CSF, and pharmacokinetics parameters.
(§5) Following a single 9-hour IV infusion of 112 mg to healthy adult subjects in Cohort 4, Compound A plasma concentration-time profile was consistent with that observed in Cohort 1. At 6 hours after the start of infusion, mean ratio CSF/plasma concentration of Compound A was estimated to be about 2.8%.

[5] = CSF PK in healthy subjects (Cohort 4); assay type: in vivo; settings: human; for concentration at 6 h: cerebrospinal fluid, intravenous, 112 mg, Cohort 4
Procedure: as §4, §5

## COC(=O)N1CCC[C@H](NS(C)(=O)=O)[C@@H]1CO[C@H]1CC[C@@H](c2ccccc2)CC1 [Compound A, methyl (2R,3S)-3-((methylsulfonyl)amino)-2-(((cis-4-phenylcyclohexyl)oxy)methyl)piperidine-1-carboxylate]
[1]; human, in vivo
  BP and pulse rate increases vs Compound A concentration: Trend for the observed BP and pulse rate increases in healthy subjects and Compound A concentration was observed
[1]; human, in vivo, iv
  commonly observed AEs: BP increased and heart rate increased
[1]; single dose, 9 hour IV infusion, Compound A groups (healthy subjects and NT1 patients)
  adverse events (AEs), severity and seriousness: all of the AEs were mild (except 1 moderate influenza) and no serious AEs were observed
Patients with NT1; 11 mg, Day 1 (placebo 1.31)
  mean sleep latency in MWT: 37.16 min
Patients with NT1; 11 mg, Day 1 (placebo −0.66)
  mean change from baseline in average sleep latency in MWT: 35.13 min
Patients with NT1; 11 mg, Day 7 (placebo 1.59)
  mean sleep latency in MWT: 23.03 min
Patients with NT1; 11 mg, Day 7 (placebo −0.38)
  mean change from baseline in average sleep latency in MWT: 21.00 min
Patients with NT1; 11 mg, at 4 hours on Day 1
  maximum sleep latency achieved in MWT: 40 min
Patients with NT1; 44 mg, Day 1 (placebo 1.31)
  mean sleep latency in MWT: 40.00 min
Patients with NT1; 44 mg, Day 1 (placebo −0.66)
  mean change from baseline in average sleep latency in MWT: 34.19 min
Patients with NT1; 44 mg, Day 7 (placebo 1.59)
  mean sleep latency in MWT: 40.00 min
Patients with NT1; 44 mg, Day 7 (placebo −0.38)
  mean change from baseline in average sleep latency in MWT: 34.78 min
Patients with NT1; 44 mg, all time points on both Day 1 and Day 7
  maximum sleep latency achieved in MWT: 40 min
[2]; 44.8 mg
  AEs observed in NT1 at the highest dose: Blood pressure increase, heart rate increase, central nervous system (CNS) related symptoms (euphoric mood, hypnagogic hallucination and logorrhea) and salivary hypersecretion were observed
[2]; NT1 subjects, doses up to 44.8 mg
  dose dependent effect on BP and heart rate increase: not notable
[2]; single dose, slow infusion over 9 hours, up to 44.8 mg, narcolepsy type 1 patients
  tolerability: well-tolerated with no major safety concerns
[3]; 5 mg (N = 6)
  Subjects without any Events (cataplexy): 3 (50.0) N (%)
[3]; 5 mg, After End of Infusion
  Number of Times of a Cataplexy Episode, Mean (SD): 10.2 (23.45)
  Number of Times of a Cataplexy Episode, Median: 0.5
[3]; 5 mg, During Infusion
  Number of Times of a Cataplexy Episode, Mean (SD): 0.0 (0.00)
  Number of Times of a Cataplexy Episode, Median: 0.0
[3]; 11.2 mg (N = 4)
  Subjects without any Events (cataplexy): 3 (75.0) N (%)
[3]; 11.2 mg, After End of Infusion
  Number of Times of a Cataplexy Episode, Mean (SD): 0.0 (0.00)
  Number of Times of a Cataplexy Episode, Median: 0.0
[3]; 11.2 mg, During Infusion
  Number of Times of a Cataplexy Episode, Mean (SD): 0.8 (1.50)
  Number of Times of a Cataplexy Episode, Median: 0.0
[3]; 44.8 mg (N = 4)
  Subjects without any Events (cataplexy): 3 (75.0) N (%)
[3]; 44.8 mg, After End of Infusion
  Number of Times of a Cataplexy Episode, Mean (SD): 0.8 (1.50)
  Number of Times of a Cataplexy Episode, Median: 0.0
[3]; 44.8 mg, During Infusion
  Number of Times of a Cataplexy Episode, Mean (SD): 0.0 (0.00)
  Number of Times of a Cataplexy Episode, Median: 0.0
[3]; During Cmpd A infusion (baseline 808, during placebo infusion 83)
  Number of Events of Cataplexy per Week in one particular patient: 0
[3]; Post Cmpd A infusion
  Number of Events of Cataplexy per Week in one particular patient: 58
[3]; during the infusion of Compound A
  frequency of cataplexy compared to baseline frequency in one patient of cohort 7: remarkably improved
[4]; Mean
  concentration at 0.5 h: 119 ng/mL
  concentration at 1 h: 162 ng/mL
  concentration at 1.5 h: 193 ng/mL
  concentration at 2 h: 186 ng/mL
  concentration at 3 h: 216 ng/mL
  concentration at 4 h: 234 ng/mL
  concentration at 6 h: 234 ng/mL
  concentration at 8 h: 177 ng/mL
  concentration at 9 h: 184 ng/mL
[4]; Median
  concentration at 0.5 h: 116 ng/mL
  concentration at 1 h: 156 ng/mL
  concentration at 1.5 h: 194 ng/mL
  concentration at 2 h: 183 ng/mL
  concentration at 3 h: 218 ng/mL
  concentration at 4 h: 224 ng/mL
  concentration at 6 h: 227 ng/mL
  concentration at 8 h: 168 ng/mL
  concentration at 9 h: 182 ng/mL
[5]; CSF, 112 mg single 9-hour IV infusion, 6 hours after the start of infusion, healthy adults Cohort 4, read-out: mean ratio CSF/plasma concentration
  Kp at 6 h: ~0.028
[5]; Mean
  concentration at 6 h: 6.73 ng/mL
[5]; Median
  concentration at 6 h: 6.63 ng/mL
